How the values were obtained:
[1] = Active agent release, Microette Hanson vertical diffusion cell, hydrophilic membrane soaked with water; details: for Release kinetics of the active agent: liquid crystal transdermal gel, Q=Q0+nt^0.5
[2] = Active agent release, Microette Hanson vertical diffusion cell, lipophilic membrane soaked with isopropyl myristate; details: release from liquid crystal gel, FIGS. 7-14
[3] = oral administration; cited from earlier work

| Structure (SMILES) | Release kinetics of the active agent [1] | further results |
| --- | --- | --- |
| CCc1ccc(C(=O)C(C)CN2CCCCC2)cc1 (stereo not shown) [Eperisone, 1-(4-ethyl-phenyl)-2-methyl-3-(1-piperidinyl)-1-propanon] | generally follows the Higuchi-like relationship |  |
| CNC1(c2ccccc2Cl)CCCCC1=O (stereo not shown) [Ketamine, 2-(2-chloro-phenyl)-2-(methyl-amino)-cyclohexanon] | generally follows the Higuchi-like relationship | Active agent release in 4 hours, Hydrophilic membrane ([1]; liquid crystal gel with low molecular weight sodium-hyaluronate, ondansetron 1.2%, terbinafine 2.0%, metronidazole 0.9%, eperisone 0.8%, tolperisone 1.0%, ketamine 1.0%): 9.73 μg/cm^2; Crossing of the hydrophilic membrane ([1]; release from liquid crystal gel, FIGS. 7-14): cross the hydrophilic membrane quickly and effectively; Crossing of the membrane impregnated with lipophilic fluid [2]: do not cross the membrane impregnated with lipophilic fluid |
| Cc1ncc([N+](=O)[O-])n1CCO [Metronidazole, 1-(2-hydroxy-1-ethyl)-2-methyl-5-nitro-imidazol] | generally follows the Higuchi-like relationship |  |
| Cc1nccn1CC1CCc2c(c3ccccc3n2C)C1=O (stereo not shown) [Ondansetron, 1,2,3,9-tetrahydro-9-methyl-3-[(2-methyl-1H-imidazol-1-il)-methyl]-4H-karbazol-4-on] | generally follows the Higuchi-like relationship |  |
| CN(C/C=C/C#CC(C)(C)C)Cc1cccc2ccccc12 [Terbinafine, N-(6,6-dimethyl-2-heptene-4-inyl)-N-methyl-(E)-naphtal-1-en-methan-amine] | generally follows the Higuchi-like relationship |  |
| Cc1ccc(C(=O)C(C)CN2CCCCC2)cc1 (stereo not shown) [Tolperisone, 1-piperidino-2-methyl-3-(p-tolyl)-3-propanon] | generally follows the Higuchi-like relationship |  |
| CCOC(=O)C1=C[C@]2(CC)CCCN3CCc4c(n1c1ccccc41)[C@@H]32 [vinpocetine, (3α,16α)-eburnamenine-14-carboxylic acid ethylester] |  | Bioavailability [3]: 6-8% |
